For 16 molecules, inhibition, IC50 and CC50 results are on record in ChEMBL document CHEMBL4765358, “Discovery of highly potent and selective antiparasitic new oxadiazole and hydroxy-oxindole small molecule hybrids” (Eur J Med Chem, 2020).

pIC50: −log10 of the molar value. Bounds are passed on as bounds.

Usually inhibition stands for the change of the read-out against control, counted positive when it falls. What is called pIC50 is the IC50 on a negative log10 scale, so that one unit is a factor of ten. By CC50 is commonly meant the concentration giving 50% cytotoxicity.

The subject of data set [1] is Trypanosoma cruzi. As to the kind of experiment: Antitrypanosomal activity against Trypanosoma cruzi (MHOM/CH/00/Tulahuen C2, lacZ) amastigotes infected in HFF-1 cells assessed as reduction in parasite growth at 150 uM incubated for 120 hrs by CPRG/Igepal substrate based photometric method relative to control. The format is functional. The note with it: MHOM/CH/00/Tulahuen C2, HFF-1.

Data set [2] relates to Trypanosoma cruzi. As to the kind of experiment: Antitrypanosomal activity against Trypanosoma cruzi (MHOM/CH/00/Tulahuen C2, lacZ) amastigotes infected in HFF-1 cells assessed as reduction in parasite growth at 75 uM incubated for 120 hrs by CPRG/Igepal substrate based photometric method relative to control. Conditions: MHOM/CH/00/Tulahuen C2, HFF-1. It counts as functional.

The test system of data set [3] is Trypanosoma cruzi. The data set can be described thus: Antitrypanosomal activity against Trypanosoma cruzi (MHOM/CH/00/Tulahuen C2, lacZ) amastigotes infected in HFF-1 cells assessed as reduction in parasite growth at 300 uM incubated for 120 hrs by CPRG/Igepal substrate based photometric method relative to control. It counts as functional. The note with it: MHOM/CH/00/Tulahuen C2, HFF-1.

Data set [4] concerns Trypanosoma cruzi. As to the kind of experiment: Antitrypanosomal activity against Trypanosoma cruzi (MHOM/CH/00/Tulahuen C2, lacZ) amastigotes infected in HFF-1 cells assessed as reduction in parasite growth incubated for 120 hrs by CPRG/Igepal substrate based photometric method. It counts as functional, organism-based. Conditions: MHOM/CH/00/Tulahuen C2, HFF-1, 120 h.
For data set [5], the system named is Leishmania infantum. The data set can be described thus: Antileishmanial activity against Leishmania infantum MHOM/MA/67/ITMAP-263 infected in THP1 cells assessed as reduction in parasite growth incubated for 120 hrs by Giemsa staining based inverted microscopic analysis. The format is functional, organism-based. The note with it: MHOM/MA/67/ITMAP-263, THP-1, 120 h.

Data set [6] can be described thus: Cytotoxicity against human HFF-1 cells assessed as reduction in cell viability incubated for 120 hrs by MTS assay. The format is cell-based. (In general: Tetrazolium assays rely on reduction of a dye to a coloured formazan, in cell work by metabolically active cells.)
The nature of data set [7]: Cytotoxicity against human HepG2 cells assessed as reduction in cell viability incubated for 120 hrs by MTS assay. The format is cell-based.

Turning to `O=C(Cn1ccnc1[N+](=O)[O-])NCc1ccccc1` [BENZNIDAZOLE], the inhibition at 150 µM in data set [1] was found to be 92.8%. Besides, the inhibition at 75 µM in data set [2] was determined as 85.5%. Moreover, the inhibition at 300 µM in data set [3] turned out to be 100%. In addition, in data set [4], the negative logarithm of the IC50 (pIC50) is 5.25.

Consider `C=CCOC1(C(=C)c2nc(-c3ccccc3)no2)C(=O)N(CC)c2c(Br)cccc21` (configuration not stated), for which the inhibition at 150 µM in data set [1] is 100%. The pIC50 in data set [5] is 5.31; in data set [4] it was 5.20. The inhibition at 75 µM in data set [2] came out at 93.8%. Besides, the CC50 at 120 h turned out to be 20.3 µM in data set [6] and 60.6 µM in data set [7]. The inhibition at 300 µM in data set [3] is 100%.

In the case of `C=CCOC1(C(=C)c2nc(-c3ccccc3)no2)C(=O)N(CC)c2ccccc21` (configuration not stated), the negative logarithm of the IC50 (pIC50) in data set [5] is 4.97; in data set [4], 4.92. Moreover, the CC50 at 120 h in data set [6] and in data set [7] was above 64 µM throughout.

Regarding `C=C(c1nc(-c2ccc([N+](=O)[O-])cc2)no1)C1(O)C(=O)N(CC)c2ccc(OC)cc21` (configuration not stated), the pIC50 in data set [5] is 4.92; in data set [4], below 4.19. In addition, the figures for the half-maximal cytotoxic concentration (CC50) at 120 h in data set [6] and in data set [7] were 43.6 µM and 5.83 µM, respectively.

Turning to `C=Cc1nc(-c2ccc([N+](=O)[O-])cc2)no1`, the pIC50 was 4.91 in data set [5] and below 4.19 in data set [4]. The half-maximal cytotoxic concentration (CC50) at 120 h is above 64 µM in data set [6] and 26.9 µM in data set [7].

For the molecule `CCN1C(=O)C2(OCC=C2c2nc(-c3ccccc3)no2)c2cccc(Br)c21` (configuration not stated), the negative logarithm of the IC50 (pIC50) in data set [5] is 5.19; in data set [4], 4.57. Further, the CC50 at 120 h was 34.2 µM in data set [6] and 58.4 µM in data set [7].

Regarding `C=C(c1nc(-c2ccccc2)no1)C1(O)C(=O)N(CC)c2ccccc21` (configuration not stated), in data set [1], the inhibition at 150 µM stood at 100%. Besides, the pIC50 in data set [5] is 5.14; in data set [4] it was 5.64. In addition, the inhibition at 75 µM in data set [2] is 100%. Besides, the CC50 at 120 h was above 64 µM in data set [6] and 26.8 µM in data set [7]. Besides, in data set [3], the inhibition at 300 µM stood at 100%.

`C=C(c1nc(-c2ccccc2)no1)C(O)c1ccccc1Cl` (configuration not stated): the pIC50 was 4.75 in data set [5] and 4.59 in data set [4]. Further, the CC50 at 120 h in data set [6] is above 64 µM; in data set [7], 59.2 µM.

`C=C(c1nc(-c2ccccc2)no1)C1(O)C(=O)N(CC)c2ccc([N+](=O)[O-])cc21` (configuration not stated): the inhibition at 150 µM in data set [1] worked out at 85.4%. The pIC50 in data set [5] is 5.29; in data set [4], below 5.17. For the same molecule, the inhibition at 75 µM in data set [2] came out at 78.9%. Moreover, the values for the cytotoxic concentration (CC50) at 120 h in data set [6] and in data set [7] were above 64 µM and 3.61 µM, respectively. The inhibition at 300 µM in data set [3] was 100%.

`CCN1C(=O)C2(OCC=C2c2nc(-c3ccccc3)no2)c2ccccc21` (configuration not stated): the pIC50 in data set [5] is 4.93; in data set [4], 4.92. In addition, the values for the half-maximal cytotoxic concentration (CC50) at 120 h in data set [6] and in data set [7] were 20.6 µM and 60.4 µM, respectively.

Take `C=C(c1nc(-c2ccccc2)no1)C(O)c1cccnc1` (configuration not stated): in data set [1], the inhibition at 150 µM worked out at 99.6%. For the same molecule, the results for the negative logarithm of the IC50 (pIC50) in data set [5] and in data set [4] were 5.07 and 5.66, respectively. The inhibition at 75 µM in data set [2] came out at 89.5%. In addition, the cytotoxic concentration (CC50) at 120 h in data set [6] was above 64 µM; in data set [7], 19 µM. Moreover, in data set [3], the inhibition at 300 µM was determined as 100%.

Take `C=C(c1nc(-c2ccccc2)no1)C(O)c1cccc(Cl)c1` (configuration not stated): in data set [1], the inhibition at 150 µM was 98.6%. Moreover, the negative logarithm of the IC50 (pIC50) was 5.11 in data set [5] and 5.21 in data set [4]. In addition, the inhibition at 75 µM in data set [2] stood at 90.5%. Further, the values for the CC50 at 120 h in data set [6] and in data set [7] were above 64 µM and 20.2 µM, respectively. Further, in data set [3], the inhibition at 300 µM was 100%.

Take `C=C(c1nc(-c2ccccc2)no1)C1(O)C(=O)N(Cc2ccccc2)c2ccccc21` (configuration not stated): the negative logarithm of the IC50 (pIC50) is 5.25 in data set [5] and 4.97 in data set [4]. Also, the values for the half-maximal cytotoxic concentration (CC50) at 120 h in data set [6] and in data set [7] were above 64 µM and 19.2 µM, respectively.

For `C=C(c1nc(-c2ccccc2)no1)C1(O)C(=O)N(CC)c2ccc(Br)cc21` (configuration not stated), the inhibition at 150 µM in data set [1] was determined as 100%. The pIC50 in data set [5] is 5.43; in data set [4] it was 5.66. Also, the inhibition at 75 µM in data set [2] was 100%. In addition, the 50% cytotoxic concentration (CC50) at 120 h in data set [6] was above 64 µM; in data set [7], 11.5 µM. Also, in data set [3], the inhibition at 300 µM is 100%.

As to `C=C(c1nc(-c2ccc(OC)cc2)no1)C1(O)C(=O)N(CC)c2ccc(OC)cc21` (configuration not stated), the pIC50 was 4.66 in data set [5] and below 4.19 in data set [4]. The CC50 at 120 h in data set [6] was 54.5 µM; in data set [7] it was 13.6 µM.

`C=C(c1nc(-c2ccccc2)no1)C(O)c1cc(F)cc(F)c1` (configuration not stated): the negative-log IC50 (pIC50) was 5.29 in data set [5] and below 4.00 in data set [4]. Moreover, the CC50 at 120 h in data set [6] was above 64 µM; in data set [7], 7.92 µM.
